{"source": "patent US20110172296A1", "about": "“MODULATION OF TRANSFORMING GROWTH FACTOR-BETA 1 EXPRESSION” (priority 2010, published 2011)", "key": {"human TGF-beta1 mRNA": {"system": "human TGF-beta1 mRNA", "test": "Dose-dependent confirmation of antisense inhibition of human TGF-beta1 in HuVEC cells after large-scale synthesis, Lipofectamine 2000, 0.007-15 nM (Example 5)", "type": "cell-based", "settings": "for percent inhibition of TGF-beta1: Lipofectamine 2000", "method": "Cells were plated at a density of 5,000 cells per well and transfected using Lipofectamine™ 2000 reagent with 0.007 nM, 0.021 nM, 0.062 nM, 0.185 nM, 0.556 nM, 1.667 nM, 5 nM, and 15 nM concentrations of antisense oligonucleotide for 4 hours, as specified in Table 5. After a recovery period of approximately 16 hours, RNA was isolated from the cells and TGF-beta1 mRNA levels were measured by quantitative real-time PCR. Human TGF-beta1 primer probe set RTS 2980 was used to measure mRNA levels. TGF-beta1 mRNA levels were adjusted according to total RNA content, as measured by RIBOGREEN®. Results are presented as percent inhibition of TGF-beta1, relative to untreated control cells."}, "murine TGF-beta1": {"system": "murine TGF-beta1", "test": "Inhibition of murine TGF-beta1 expression (data not shown)", "design": "species or system mouse"}}, "note": "e = 2'-O-(2-methoxyethyl) (MOE); d = 2'-deoxy (DNA)", "data": [{"substance": "414036 (antisense GTGTCCTTAAATACAGCCCC; sugars from the 5' end e2 d13 e5, backbone and methylation of C not given here) [compound 414036]", "values": [{"measurement": "percent inhibition of TGF-beta1", "setting": "human TGF-beta1 mRNA; 0.007 nM", "value": 5, "unit": "%"}, {"measurement": "percent inhibition of TGF-beta1", "setting": "human TGF-beta1 mRNA; 0.021 nM", "value": 26, "unit": "%"}, {"measurement": "percent inhibition of TGF-beta1", "setting": "human TGF-beta1 mRNA; 0.062 nM", "value": 41, "unit": "%"}, {"measurement": "percent inhibition of TGF-beta1", "setting": "human TGF-beta1 mRNA; 0.185 nM", "value": 58, "unit": "%"}, {"measurement": "percent inhibition of TGF-beta1", "setting": "human TGF-beta1 mRNA; 0.556 nM", "value": 73, "unit": "%"}, {"measurement": "percent inhibition of TGF-beta1", "setting": "human TGF-beta1 mRNA; 1.667 nM", "value": 84, "unit": "%"}, {"measurement": "percent inhibition of TGF-beta1", "setting": "human TGF-beta1 mRNA; 5 nM", "value": 91, "unit": "%"}, {"measurement": "percent inhibition of TGF-beta1", "setting": "human TGF-beta1 mRNA; 15 nM", "value": 90, "unit": "%"}, {"measurement": "IC50", "setting": "human TGF-beta1 mRNA; Lipofectamine 2000, Example 5", "value": 0.15, "unit": "nM"}, {"measurement": "murine TGF-beta1 expression", "setting": "murine TGF-beta1", "value": "inhibits"}]}]}
